Assay results as given in patent US8952024B2, “Herbicidal pyrimidone derivatives” (E I du Pont de Nemours and Company, priority 2009, dated 2015).
Read-outs that look alike come from different tables or passages of the source.

What was measured:
Assay in all cases: Test B pre-/postemergence plant response
Format in all cases: in vivo
[1] = tested on: goosegrass (Eleusine indica); details: Preemergence, 250 g ai/ha; 0 to 100 scale
Procedure, shortened: (§1)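 Compound in solvent + surfactant applied pre-em (loam/sand) or post-em (plants 2–18 cm, peat medium); greenhouse hold 13–15 days; visual 0–100 control score.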

[2] = tested on: large crabgrass (Digitaria sanguinalis); details: for pest or weed control at 31 g/ha: 31 g ai/ha; for pest or weed control at 125 g/ha: 125 g ai/ha
Procedure, shortened: as §1

[3] = tested on: morningglory (Ipomoea coccinea); details: for pest or weed control at 125 g/ha: 125 g ai/ha
Procedure, shortened: as §1

[4] = tested on: velvetleaf (Abutilon theophrasti); details: for pest or weed control at 31 g/ha: 31 g ai/ha; for pest or weed control at 125 g/ha: 125 g ai/ha
Procedure, shortened: as §1

[5] = tested on: wheat (Triticum aestivum); details: for plant injury at 31 g/ha: 31 g ai/ha; for plant injury at 125 g/ha: 125 g ai/ha
Procedure, shortened: as §1

[6] = tested on: woolly cupgrass (Eriochloa villosa); details: for pest or weed control at 31 g/ha: 31 g ai/ha; for pest or weed control at 125 g/ha: 125 g ai/ha
Procedure, shortened: as §1

[7] = tested on: yellow nutsedge (Cyperus esculentus); details: for pest or weed control at 31 g/ha: 31 g ai/ha; for pest or weed control at 125 g/ha: 125 g ai/ha
Procedure, shortened: as §1

[8] = 62 g ai/ha, postemergence, 0 is no effect, 100 is complete control, 13 to 15 days
[9] = Preemergence, 250 g ai/ha, 0 to 100 scale

Question: Which results are given for COCCCn1c(-c2ccccc2)ncc(C(=O)C2=C(O)CCCC2=O)c1=O [Compound 81, 5-[(2-hydroxy-6-oxo-cyclohexen-1-yl)carbonyl]-3-(3-methoxypropyl)-2-phenyl-4(3H)-pyrimidinone]?
Answer: Goosegrass plant response rating [1]: 100; Crabgrass, Large plant response rating (0 to 100 scale) [2, 8]: 95; pest or weed control at 31 g/ha ([2]; Digitaria sanguinalis, post-emergence, postemergence, scale 0 to 100, 0 is no effect, 100 is complete control, read-out: Plant response rating, Crabgrass, Large): 85%; pest or weed control at 125 g/ha ([2]; Digitaria sanguinalis, post-emergence, Postemergence, visual rating after 13 to 15 days, scale 0 (no effect) to 100 (complete control)): 95%; pest or weed control at 250 g/ha ([2]; Digitaria sanguinalis, post-emergence, Postemergence, 250 g ai/ha, scale 0 to 100 (0 no effect, 100 complete control), read-out: Plant response rating, Crabgrass, Large): 98%; pest or weed control at 31 g/ha ([2]; Digitaria sanguinalis, pre-emergence, Preemergence, scale 0 to 100 (0 no effect, 100 complete control), read-out: Plant response rating, Crabgrass, Large): 100%; pest or weed control at 62 g/ha ([2]; Digitaria sanguinalis, pre-emergence, Preemergence, 62 g ai/ha, scale 0 to 100, 0 no effect, 100 complete control, read-out: Plant response rating, Crabgrass, Large): 100%; pest or weed control at 125 g/ha ([2]; Digitaria sanguinalis, pre-emergence, Preemergence, scale 0 to 100, 0 no effect, 100 complete control, read-out: Plant response rating, Crabgrass, Large): 100%; Crabgrass, Large plant response rating [2, 9]: 100; Morningglory plant response rating (0 to 100 scale) [3, 8]: 90; pest or weed control at 31 g/ha ([3]; Ipomoea, post-emergence, 31 g ai/ha, postemergence, scale 0 to 100, 0 is no effect, 100 is complete control, read-out: Plant response rating, Morningglory): 75%; pest or weed control at 125 g/ha ([3]; Ipomoea, post-emergence, Postemergence, visual rating after 13 to 15 days, scale 0 (no effect) to 100 (complete control)): 100%; pest or weed control at 250 g/ha ([3]; Ipomoea, post-emergence, Postemergence, 250 g ai/ha, scale 0 to 100 (0 no effect, 100 complete control), read-out: Plant response rating, Morningglory): 100%; pest or weed control at 62 g/ha ([3]; Ipomoea, pre-emergence, Preemergence, 62 g ai/ha, scale 0 to 100, 0 no effect, 100 complete control, read-out: Plant response rating, Morningglory): 65%; pest or weed control at 125 g/ha ([3]; Ipomoea, pre-emergence, Preemergence, scale 0 to 100, 0 no effect, 100 complete control, read-out: Plant response rating, Morningglory): 80%; Morningglory plant response rating [3, 9]: 95; Velvetleaf plant response rating (0 to 100 scale) [4, 8]: 100; pest or weed control at 31 g/ha ([4]; Abutilon theophrasti, post-emergence, 360 h, postemergence, scale 0 to 100, 0 is no effect, 100 is complete control, read-out: Plant response rating, Velvetleaf): 100%; pest or weed control at 125 g/ha ([4]; Abutilon theophrasti, post-emergence, 360 h, Postemergence, visual rating after 13 to 15 days, scale 0 (no effect) to 100 (complete control)): 100%; pest or weed control at 250 g/ha ([4]; Abutilon theophrasti, post-emergence, 360 h, Postemergence, 250 g ai/ha, scale 0 to 100 (0 no effect, 100 complete control), read-out: Plant response rating, Velvetleaf): 100%; pest or weed control at 31 g/ha ([4]; Abutilon theophrasti, pre-emergence, 360 h, Preemergence, scale 0 to 100 (0 no effect, 100 complete control), read-out: Plant response rating, Velvetleaf): 100%; pest or weed control at 62 g/ha ([4]; Abutilon theophrasti, pre-emergence, 360 h, Preemergence, 62 g ai/ha, scale 0 to 100 (0 no effect, 100 complete control), read-out: Plant response rating, Velvetleaf): 100%; pest or weed control at 125 g/ha ([4]; Abutilon theophrasti, pre-emergence, 360 h, Preemergence, scale 0 to 100, 0 no effect, 100 complete control, read-out: Plant response rating, Velvetleaf): 100%; Velvetleaf plant response rating [4, 9]: 100; Wheat plant response rating (0 to 100 scale) [5, 8]: 20; Wheat plant response rating [5, 9]: 0; plant injury at 31 g/ha ([5]; Triticum aestivum, post-emergence, postemergence, scale 0 to 100, 0 is no effect, 100 is complete control, read-out: Plant response rating, Wheat): 5%; plant injury at 125 g/ha ([5]; Triticum aestivum, post-emergence, Postemergence, visual rating after 13 to 15 days, scale 0 (no effect) to 100 (complete control)): 25%; plant injury at 250 g/ha ([5]; Triticum aestivum, post-emergence, Postemergence, 250 g ai/ha, scale 0 to 100 (0 no effect, 100 complete control), read-out: Plant response rating, Wheat): 25%; plant injury at 31 g/ha ([5]; Triticum aestivum, pre-emergence, Preemergence, scale 0 to 100 (0 no effect, 100 complete control), read-out: Plant response rating, Wheat): 0%; plant injury at 62 g/ha ([5]; Triticum aestivum, pre-emergence, Preemergence, 62 g ai/ha, scale 0 to 100 (0 no effect, 100 complete control), read-out: Plant response rating, Wheat): 0%; plant injury at 125 g/ha ([5]; Triticum aestivum, pre-emergence, Preemergence, scale 0 to 100, 0 no effect, 100 complete control, read-out: Plant response rating, Wheat): 0%; Cupgrass, Woolly plant response rating (0 to 100 scale) [6, 8]: 75; pest or weed control at 31 g/ha ([6]; Eriochloa villosa, post-emergence, postemergence, scale 0 to 100, 0 is no effect, 100 is complete control, read-out: Plant response rating, Cupgrass, Woolly): 65%; pest or weed control at 125 g/ha ([6]; Eriochloa villosa, post-emergence, Postemergence, visual rating after 13 to 15 days, scale 0 (no effect) to 100 (complete control)): 90%; pest or weed control at 250 g/ha ([6]; Eriochloa villosa, post-emergence, Postemergence, 250 g ai/ha, scale 0 to 100 (0 no effect, 100 complete control), read-out: Plant response rating, Cupgrass, Woolly): 90%; pest or weed control at 31 g/ha ([6]; Eriochloa villosa, pre-emergence, Preemergence, scale 0 to 100 (0 no effect, 100 complete control), read-out: Plant response rating, Cupgrass, Woolly): 40%; pest or weed control at 62 g/ha ([6]; Eriochloa villosa, pre-emergence, Preemergence, 62 g ai/ha, scale 0 to 100, 0 no effect, 100 complete control, read-out: Plant response rating, Cupgrass, Woolly): 55%; pest or weed control at 125 g/ha ([6]; Eriochloa villosa, pre-emergence, Preemergence, scale 0 to 100, 0 no effect, 100 complete control, read-out: Plant response rating, Cupgrass, Woolly): 75%; Cupgrass, Woolly plant response rating [6, 9]: 85; Nutsedge, Yellow plant response rating (0 to 100 scale) [7, 8]: 80; pest or weed control at 31 g/ha ([7]; Cyperus, post-emergence, postemergence, scale 0 to 100, 0 is no effect, 100 is complete control, read-out: Plant response rating, Nutsedge, Yellow): 65%; pest or weed control at 125 g/ha ([7]; Cyperus, post-emergence, Postemergence, visual rating after 13 to 15 days, scale 0 (no effect) to 100 (complete control)): 80%; pest or weed control at 250 g/ha ([7]; Cyperus, post-emergence, Postemergence, 250 g ai/ha, scale 0 to 100 (0 no effect, 100 complete control), read-out: Plant response rating, Nutsedge, Yellow): 80%; pest or weed control at 31 g/ha ([7]; Cyperus, pre-emergence, Preemergence, scale 0 to 100 (0 no effect, 100 complete control), read-out: Plant response rating, Nutsedge, Yellow): 10%; pest or weed control at 62 g/ha ([7]; Cyperus, pre-emergence, Preemergence, 62 g ai/ha, scale 0 to 100 (0 no effect, 100 complete control), read-out: Plant response rating, Nutsedge, Yellow): 75%; pest or weed control at 125 g/ha ([7]; Cyperus, pre-emergence, Preemergence, scale 0 to 100, 0 no effect, 100 complete control, read-out: Plant response rating, Nutsedge, Yellow): 95%; Nutsedge, Yellow plant response rating [7, 9]: 95
